{
  "source": "paper PMC9570594",
  "about": "“Development of Novel Pyridine-Thiazole Hybrid Molecules as Potential Anticancer Agents” (Molecules, 2022)",
  "key": {"[1]": {"test_system": "CCRF-CEM (Leukemia)", "assay": "NCI five-dose SRB assay", "type": "cell-based", "settings": "Homo sapiens, 48 h"}, "[2]": {"test_system": "K-562 (Leukemia)", "assay": "NCI five-dose SRB assay", "type": "cell-based", "settings": "Homo sapiens, K562, 48 h"}, "[3]": {"test_system": "HOP-62 (Non-Small Cell Lung Cancer)", "assay": "NCI five-dose SRB assay", "type": "cell-based", "settings": "Homo sapiens, 48 h"}, "[4]": {"test_system": "NCI-H226 (Non-Small Cell Lung Cancer)", "assay": "NCI five-dose SRB assay", "type": "cell-based", "settings": "Homo sapiens, 48 h"}, "[5]": {"test_system": "NCI-H460 (Non-Small Cell Lung Cancer)", "assay": "NCI five-dose SRB assay", "type": "cell-based", "settings": "Homo sapiens, 48 h"}, "[6]": {"test_system": "HCC-2998 (Colon Cancer)", "assay": "NCI five-dose SRB assay", "type": "cell-based", "settings": "Homo sapiens, 48 h"}, "[7]": {"test_system": "HCT-116 (Colon Cancer)", "assay": "NCI five-dose SRB assay", "type": "cell-based", "settings": "Homo sapiens, 48 h"}, "[8]": {"test_system": "KM12 (Colon Cancer)", "assay": "NCI five-dose SRB assay", "type": "cell-based", "settings": "Homo sapiens, 48 h"}, "[9]": {"test_system": "SF-295 (CNS Cancer)", "assay": "NCI five-dose SRB assay", "type": "cell-based", "settings": "Homo sapiens, 48 h"}, "[10]": {"test_system": "SNB-19 (CNS Cancer)", "assay": "NCI five-dose SRB assay", "type": "cell-based", "settings": "Homo sapiens, 48 h"}, "[11]": {"test_system": "U251 (CNS Cancer)", "assay": "NCI five-dose SRB assay", "type": "cell-based", "settings": "Homo sapiens, U-251, 48 h"}, "[12]": {"test_system": "Melanoma cell lines (MG_MID)", "assay": "NCI five-dose SRB assay", "type": "cell-based", "settings": "Homo sapiens, 48 h"}, "[13]": {"test_system": "IGROV-1 (Ovarian Cancer)", "assay": "NCI five-dose SRB assay", "type": "cell-based", "settings": "Homo sapiens, 48 h"}, "[14]": {"test_system": "OVCAR-8 (Ovarian Cancer)", "assay": "NCI five-dose SRB assay", "type": "cell-based", "settings": "Homo sapiens, 48 h"}, "[15]": {"test_system": "NCI/ADR-RES (Ovarian Cancer)", "assay": "NCI five-dose SRB assay", "type": "cell-based", "settings": "Homo sapiens, 48 h"}, "[16]": {"test_system": "786-0 (Renal Cancer)", "assay": "NCI five-dose SRB assay", "type": "cell-based", "settings": "Homo sapiens, 48 h"}, "[17]": {"test_system": "ACHN (Renal Cancer)", "assay": "NCI five-dose SRB assay", "type": "cell-based", "settings": "Homo sapiens, 48 h"}, "[18]": {"test_system": "SN12C (Renal Cancer)", "assay": "NCI five-dose SRB assay", "type": "cell-based", "settings": "Homo sapiens, 48 h"}, "[19]": {"test_system": "TK-10 (Renal Cancer)", "assay": "NCI five-dose SRB assay", "type": "cell-based", "settings": "Homo sapiens, 48 h"}, "[20]": {"test_system": "Prostate Cancer cell lines (MG_MID)", "assay": "NCI five-dose SRB assay", "type": "cell-based", "settings": "Homo sapiens, 48 h"}, "[21]": {"test_system": "MDA-MB-231/ATCC (Breast Cancer)", "assay": "NCI five-dose SRB assay", "type": "cell-based", "settings": "Homo sapiens, 48 h"}, "[22]": {"test_system": "HS 578T (Breast Cancer)", "assay": "NCI five-dose SRB assay", "type": "cell-based", "settings": "Homo sapiens, 48 h"}, "[23]": {"test_system": "T-47D (Breast Cancer)", "assay": "NCI five-dose SRB assay", "type": "cell-based", "settings": "Homo sapiens, T47D, 48 h"}, "[24]": {"test_system": "MDA-MB-468 (Breast Cancer)", "assay": "NCI five-dose SRB assay", "type": "cell-based", "settings": "Homo sapiens, 48 h"}, "[25]": {"test_system": "Breast Cancer cell lines (MG_MID)", "assay": "NCI five-dose SRB assay", "type": "cell-based", "settings": "Homo sapiens, 48 h"}, "[26]": {"test_system": "full panel of human tumor cell lines (MG_MID)", "assay": "NCI five-dose SRB assay, full panel", "type": "cell-based", "experimental": "Using absorbance measurements [time zero (Tz), control growth in the absence of drug (C), and test growth in the presence of drug (Ti)], the percentage growth was calculated for each drug concentration. Percentage growth inhibition was calculated as:\nDose response parameters (GI50, TGI, LC50) were calculated for each compound. […] The drug concentration resulting in total growth inhibition (TGI) was calculated from Ti = Tz. […] Values were calculated for each of these parameters if the level of activity was reached; however, if the effect was not reached or was excessive, the value for that parameter was expressed as more or less than the maximum or minimum concentration tested."}, "[27]": {"test_system": "NCI-H522 (Non-Small Cell Lung Cancer)", "assay": "NCI one-dose SRB assay", "settings": "10 μM, 48 h", "method": "(§1) Primary anticancer assays (Table 3) on a panel of 60 cancer cell lines at one dose-assay (10^−5 M) were performed according to the NCI protocol, as described elsewhere [31, 32, 33, 34, 35].\n(§2) A primary anticancer assay was performed on a panel of approximately sixty human tumor cell lines derived from nine neoplastic diseases, in accordance with the protocol of the Drug Evaluation Branch, National Cancer Institute, Bethesda [31, 32, 33, 34, 35]. Tested compounds were added to the culture at a single concentration (10^−5 M) and the cultures were incubated for 48 h. End point determinations were made with a protein binding dye, Sulphorhodamine B (SRB). […] The percentage growth was evaluated spectrophotometrically versus controls not treated with test agents."}, "[28]": {"test_system": "Colo 205 (Colon Cancer)", "assay": "NCI one-dose SRB assay", "settings": "10 μM, 48 h"}, "[29]": {"test_system": "HT29 (Colon Cancer)", "assay": "NCI one-dose SRB assay", "settings": "10 μM, 48 h", "method": "Tested compounds were added to the culture at a single concentration (10^−5 M) and the cultures were incubated for 48 h. End point determinations were made with a protein binding dye, Sulphorhodamine B (SRB). […] The percentage growth was evaluated spectrophotometrically versus controls not treated with test agents."}, "[30]": {"test_system": "U251 (CNS Cancer)", "assay": "NCI one-dose SRB assay", "settings": "10 μM, 48 h", "method": "as §2"}, "[31]": {"test_system": "LOX IMVI (Melanoma)", "assay": "NCI one-dose SRB assay", "settings": "10 μM, 48 h", "method": "as §1, §2"}, "[32]": {"test_system": "MCF-7 (breast)", "assay": "MTT assay of cell viability", "settings": "Homo sapiens, MCF7, 72 h, MCF-7; 72 h of incubation, M ± SD"}, "[33]": {"test_system": "Jurkat (leukemia)", "assay": "MTT assay of cell viability", "settings": "Homo sapiens, 72 h"}, "[34]": {"test_system": "A549 (lung)", "assay": "MTT assay of cell viability", "settings": "Homo sapiens, A549, 72 h"}, "[35]": {"test_system": "BALB-3T3 (normal mouse fibroblasts)", "assay": "MTT assay of cell viability", "settings": "BALB/3T3, 72 h"}},
  "note": "Read-outs that look alike come from different tables or passages of the source.",
  "data": [
    {"smiles": "CCOC(=O)c1ccc(NC(=O)CSC(CC(=O)c2sc(Nc3ccccn3)nc2C)c2ccccc2F)cc1", "note": "(centres unmarked) [Compound 4, Ethyl 4-[[2-[1-(2-Fluorophenyl)-3-[4-methyl-2-(2-pyridylamino)thiazol-5-yl]-3-oxopropyl]sulfanylacetyl]amino]benzoate]", "values": [
      {"measurement": "GI50", "setting": "[1]", "value": 18.6, "unit": "µM"},
      {"measurement": "GI50", "setting": "[2]", "value": 30.4, "unit": "µM"},
      {"measurement": "GI50", "setting": "[3]", "value": 37.5, "unit": "µM"},
      {"measurement": "GI50", "setting": "[4]", "value": 2520, "unit": "nM"},
      {"measurement": "GI50", "setting": "[5]", "value": 31.2, "unit": "µM"},
      {"measurement": "GI50", "setting": "[6]", "value": 23.1, "unit": "µM"},
      {"measurement": "GI50", "setting": "[7]", "value": 23, "unit": "µM"},
      {"measurement": "GI50", "setting": "[8]", "value": 55.6, "unit": "µM"},
      {"measurement": "GI50", "setting": "[9]", "value": 32.2, "unit": "µM"},
      {"measurement": "GI50", "setting": "[10]", "value": 36.9, "unit": "µM"},
      {"measurement": "GI50", "setting": "[11]", "value": 47.8, "unit": "µM"},
      {"measurement": "GI50", "setting": "[12]", "value": 25.3, "unit": "µM"},
      {"measurement": "GI50", "setting": "[13]", "value": 12.1, "unit": "µM"},
      {"measurement": "GI50", "setting": "[14]", "value": 53.6, "unit": "µM"},
      {"measurement": "GI50", "setting": "[15]", "value": 24.1, "unit": "µM"},
      {"measurement": "GI50", "setting": "[16]", "value": 24.8, "unit": "µM"},
      {"measurement": "GI50", "setting": "[17]", "value": 45.6, "unit": "µM"},
      {"measurement": "GI50", "setting": "[18]", "value": 28, "unit": "µM"},
      {"measurement": "GI50", "setting": "[19]", "value": 82.3, "unit": "µM"},
      {"measurement": "GI50", "setting": "[20]", "value": 45.5, "unit": "µM"},
      {"measurement": "GI50", "setting": "[21]", "value": 19.3, "unit": "µM"},
      {"measurement": "GI50", "setting": "[22]", "value": 14.9, "unit": "µM"},
      {"measurement": "GI50", "setting": "[23]", "value": 18, "unit": "µM"},
      {"measurement": "GI50", "setting": "[24]", "value": 4.24, "unit": "µM"},
      {"measurement": "GI50", "setting": "[25]", "value": 14.4, "unit": "µM"},
      {"measurement": "GI50", "setting": "[26]; Homo sapiens, RPMI-8226, NCI-H226, SNB-75, SF 539, M14, MDA-MB-435, UO-31, RXF 393, MDA-MB-468, read-out: active concentration range (GI50) towards most sensitive lines", "value": "2.52 to 8.29", "unit": "µM"},
      {"measurement": "GI50", "setting": "[26]; Homo sapiens, full panel MG_MID (average GI50), 48 h, read-out: GI50", "value": 31.7, "unit": "µM"},
      {"measurement": "LC50 (concentration giving 50% net tumour cell kill)", "setting": "[26]; Homo sapiens, full panel, mainly", "value": "> 100", "unit": "µM"},
      {"measurement": "TGI", "setting": "[26]; full panel, mainly", "value": "> 100", "unit": "µM"},
      {"measurement": "Growth %", "setting": "[27]", "value": "−22.73", "unit": "%"},
      {"measurement": "Growth %", "setting": "[28]", "value": "−34.08", "unit": "%"},
      {"measurement": "Growth %", "setting": "[29]", "value": "−28.32", "unit": "%"},
      {"measurement": "Growth %", "setting": "[30]", "value": "−70.41", "unit": "%"},
      {"measurement": "Growth %", "setting": "[31]", "value": "−76.78", "unit": "%"},
      {"measurement": "IC50", "setting": "[32]", "value": "2790 ± 1310", "unit": "nM"},
      {"measurement": "IC50", "setting": "[33]", "value": "5.36 ± 0.16", "unit": "µM"},
      {"measurement": "IC50", "setting": "[34]", "value": "8.05 ± 0.24", "unit": "µM"},
      {"measurement": "IC50", "setting": "[35]", "value": "7.79 ± 0.38", "unit": "µM"}
    ]}
  ]
}
